# Patent publication US20100285038A1, “Factor Involved in Metastasis and Uses Thereof” (priority 2002, published 2010)
# Columns and labels:
# PRF1 protein = assay: Western blot analysis of PRF1 protein expression in PC-3 cells; type: cell-based, human; conditions: PC-3 cells; after 72 and 96 h; DMSO as control (FIG. 9A)
# Description: A polyclonal antibody was generated against PRF1 using standard techniques. The polyclonal antibody thus obtained was tested for its specificity for PRF1. For that purpose, cell lysates from PC-3 cells treated with PRF1 specific antisense molecules, more particularly gene blocks, or mismatches thereof and cells transfected with expression plasmides for recombinant HA-tagged PRF1 were prepared. The lysates were analysed by Western blot analysis using the polyclonal antibody and the results are depicted in FIG. 8 A.
# (§1) To investigate whether PI 3-kinase activity has an impact on PRF1 protein expression, PC-3 cells were treated either with LY294002 or with DMSO as control. Analysis was performed by Western Blot analysis using the polyclonal antibody as detection means for PRF1 protein. Apart from PRF1 protein, also expression of Akt and phosphorylated Akt (P*Akt) was monitored using respective specific antibodies. Additionally, the expression of p110α and p85 was monitored.
# To investigate whether the expression of PRF1 at the protein level would also be dependent on Akt (PKB) activity and HIF1α activity PC-3 cells were treated with Akt specific antisense molecules. More particularly, two antisense molecules, designated Akt1-GB and Akt2-molecule were used with the readout being the same as discussed in connection with FIG. 9, whereby, additionally, the HIF1α protein expression was monitored using a commercially available protein G-purified polyclonal antibody (R&DSystems, Lot Number: IUGO13071).
# The same experiment using the same markers for monitoring except Akt and P*-Akt was carried out with cells grown under hypoxic conditions which was realized by treating the cells with CoCl2. Two different forms of antisense molecules, namely HIF1α-GB66 and HIF1α-GB67 were used and respective mismatches used as controls.
# A lane of the Blot represents the cell lysate of the cells shown in the corresponding photograph. As a read-out, p110 alpha and p85 are shown as loading control and the component of the PI-3K pathway investigated, i.e. AKT, monitored as P*AKT, HIF1 alpha and PRF1.
# [1] = test system: Akt and phosphorylated Akt (P*Akt); assay: Western blot analysis of Akt and phosphorylated Akt in PC-3 cells; type: cell-based, human; conditions: DMSO as control (FIG. 9A)
# Description: as §1
smiles,measurement,setting,value
"O=c1cc(N2CCOCC2)oc2c(-c3ccccc3)cccc12 [LY294002, 2-(4-morpholinyl)-8-phenylchromone]",PRF1 protein expression,PRF1 protein,down regulated
same,Akt and phosphorylated Akt,[1],down regulated
